# Experimental data: patent EP0427484B1, “Novel benzoxazolone compounds and the use thereof as microbicides” (ROHM AND HAAS COMPANY, priority 1989, dated 1991)
# Assays:
# [1] = system: Aspergillus niger (A. niger) - ATCC 6275; assay: MIC test, broth two-fold serial dilution; type: cell-based; details: ATCC6275, complete inhibition of growth, read-out: MIC (ppm) for each compound
# Experimental: (§1) Activity against certain bacteria and fungi was determined using a minimum inhibitory concentration (MIC) test, which establishes the minimum concentration of test compound required to achieve complete inhibition of growth of the test organism. An MIC value was obtained using a broth, two-fold serial dilution test performed as follows: […] A volume of the stock solution was dispensed into culture media to give an initial starting test concentration of 500 ppm compound. When the test was ready to be done, each vessel in the dilution series, except the first vessel, contained an equal volume of compound free broth. The first vessel contained twice the volume of broth with the starting concentration of test compound. One half of the broth from the first vessel was transferred to the second vessel. After being mixed, one half the resulting volume was removed from the second vessel and transferred to the third vessel. The entire cycle was repeated sufficiently to give a series of concentrations amounting to 500, 250, 125, 63, 31, 16, 8, and 4 ppm (or 25, 12.5, 6.2, 3.1, 1.6, 0.8, 0.4, 0.2), respectively. Each vessel was then inoculated with a cell suspension of the appropriate test organism. Bacteria were grown in broth and fungi on agar […] for a time and at a temperature appropriate to the species being tested. At the end of the growth period, the bacteria containing broth was vortexed to disperse the cells. In the case of fungi, the spores were harvested by pipetting water onto the slant and dislodging the spores with a sterile loop. The cell/spore suspension was standardized by controlling incubation time, temperature, and the volume of the diluent. The suspension was then used to inoculate the vessels containing the broth compound. The vessels were then incubated at the appropriate temperature. Alter the incubation, the vessels were examined for growth/no growth. The minimum inhibitory concentration (MIC) is defined as the lowest concentration of compound that results in complete inhibition of growth of the test organism. The organisms tested were bacteria Pseudomonas fluorescens (Ps.fl) - ATCC 948, Pseudomonas aeruginosa (Ps.ae) - ATCC 15442, Escherichia Coli (E.coli) - ATCC 11229, and Staphylococcus aureus (S.aur) - ATCC 6538; and fungi Aspergillus niger (A. niger) - ATCC 6275, Penicillium funiculosum (P. fun.) - ATCC 11797, Cladosporium resinae (A. res.) - ATCC 52833, Aureobasidium pullulans (A. pull.) - ATCC 9248, Cloeophyllum trabeuor (G. trab.) - ATCC 11539; and two yeasts Sacharomyces […].) - ATCC 560, and Rhorotorularubra (R. rubra) - ATCC 2503.
# [2] = system: Aureobasidium pullulans (A. pull.) - ATCC 9248; assay: MIC test, broth two-fold serial dilution; type: cell-based; details: ATCC9248, complete inhibition of growth, read-out: MIC (ppm) for each compound
# Experimental: as §1
# [3] = system: Cladosporium resinae (A. res.) - ATCC 52833; assay: MIC test, broth two-fold serial dilution; type: cell-based; details: Amorphotheca resinae, ATCC52833; Cl.res.; complete inhibition of growth; read-out: MIC (ppm) for each compound
# Experimental: as §1
# [4] = system: Cloeophyllum trabeuor (G. trab.) - ATCC 11539; assay: MIC test, broth two-fold serial dilution; type: cell-based; details: complete inhibition of growth, read-out: MIC (ppm) for each compound
# Experimental: as §1
# [5] = system: Escherichia Coli (E.coli) - ATCC 11229; assay: MIC test, broth two-fold serial dilution; type: cell-based; details: ATCC11229, complete inhibition of growth, read-out: MIC (ppm) for each compound
# Experimental: as §1
# [6] = system: Penicillium funiculosum (P. fun.) - ATCC 11797; assay: MIC test, broth two-fold serial dilution; type: cell-based; details: Talaromyces funiculosus, ATCC11797, complete inhibition of growth, read-out: MIC (ppm) for each compound
# Experimental: as §1
# [7] = system: Pseudomonas aeruginosa (Ps.ae) - ATCC 15442; assay: MIC test, broth two-fold serial dilution; type: cell-based; details: ATCC15442, complete inhibition of growth, read-out: MIC (ppm) for each compound
# Experimental: as §1
# [8] = system: Pseudomonas fluorescens (Ps.fl) - ATCC 948; assay: MIC test, broth two-fold serial dilution; type: cell-based; details: ATCC948, complete inhibition of growth, read-out: MIC (ppm) for each compound
# Experimental: as §1
# [9] = system: Rhorotorularubra (R. rubra) - ATCC 2503; assay: MIC test, broth two-fold serial dilution; type: cell-based; details: complete inhibition of growth, read-out: MIC (ppm) for each compound
# Experimental: as §1
# [10] = system: Sacharomyces cereresae (S. cer.) - ATCC 560; assay: MIC test, broth two-fold serial dilution; type: cell-based; details: complete inhibition of growth, read-out: MIC (ppm) for each compound
# Experimental: as §1
# [11] = system: Staphylococcus aureus (S.aur) - ATCC 6538; assay: MIC test, broth two-fold serial dilution; type: cell-based; details: ATCC6538, complete inhibition of growth, read-out: MIC (ppm) for each compound
# Experimental: as §1
# Fusarium roseum = type: cell-based; details: in vitro, dose 25 ppm, relative to untreated check
# Piricularia oryzae [12] = type: cell-based; details: in vitro, dose 25 ppm, relative to untreated check
# Xanthomonas campestris = type: cell-based; details: in vitro, dose 25 ppm, relative to untreated check
# Botrytis cinerea = details: 25 ppm
# Cochliobolus sativus = details: 25 ppm
# Phytophthora capsici = details: 25 ppm
# Pythium ultimum = details: 25 ppm
# Rhizoctonia solani = details: 25 ppm
# Septoria nodorum [13] = details: 25 ppm
# [14] = system: Pseudoperonospora cubensis; assay: In vivo plant disease control test, cucumber downy mildew (CDM)
# Piricularia oryzae [15] = type: in vivo; details: Nato rice plants, sprayed at 200 ppm before inoculation, seven to eight days after inoculation
# Septoria nodorum [16] = assay: In vivo plant disease control test, wheat glume blotch (WGB)
# Phytophthora infestans = type: in vivo; details: Pixie tomato plants, sprayed at 200 ppm before inoculation, four days after inoculation
# [17] = system: Puccinia recondita (f. sp. tritici Races PKB and PLD); assay: In vivo plant disease control test, wheat leaf rust (WLR); details: Fielder wheat, 200 ppm, scored after 10 days
# [18] = system: Erysiphe graminis (f. sp. tritici); assay: In vivo plant disease control test, wheat powdery mildew (WPM)
Structure (SMILES),MIC [1] [µg/mL],MIC [2] [µg/mL],MIC [3] [µg/mL],MIC [4] [µg/mL],MIC [5] [µg/mL],MIC [6] [µg/mL],MIC [7] [µg/mL],MIC [8] [µg/mL],MIC [9] [µg/mL],MIC [10] [µg/mL],MIC [11] [µg/mL],% DISEASE CONTROL FUS (Fusarium roseum) [%],% DISEASE CONTROL PIR (Piricularia oryzae [12]) [%],% DISEASE CONTROL XAN (Xanthomonas campestris) [%],% DISEASE CONTROL BOC (Botrytis cinerea) [%],% DISEASE CONTROL HEL (Cochliobolus sativus) [%],% DISEASE CONTROL PHY (Phytophthora capsici) [%],% DISEASE CONTROL PRU (Pythium ultimum) [%],% DISEASE CONTROL RMI (Rhizoctonia solani) [%],% DISEASE CONTROL SEP (Septoria nodorum [13]) [%],other results
"O=c1oc2cc(Cl)ccc2n1CC#CBr [Y=6-Cl, X=Br, 3-(3-bromopropargyl)-6-chloro-2-benzoxazolone]",32,32,> 25,> 25,> 250,> 25,> 250,> 250,> 25,> 25,> 250,0,0,0,50,50,0,50,0,0,–
"O=c1oc2cc(Cl)ccc2n1CC#CI [Y=6-Cl, X=I, 3-(3-iodopropargyl)-6-chloro-2-benzoxazolone]",< 0.13,≤ 1,≤ 1,≤ 1,> 250,≤ 1,> 250,16,≤ 1,≤ 5,16,100,100,0,100,100,100,95,100,100,–
"O=c1oc2ccccc2n1CC#CI [Y=H, X=I, 3-(3-iodopropargyl)-2-benzoxazolone]",< 0.13,0.25,≤ 5,≤ 0.2,> 250,≤ 1,> 250,> 250,≤ 1,≤ 1,> 250,100,100,0,100,100,100,100,95,100,% DISEASE CONTROL CDM [14]: 50%; % DISEASE CONTROL RB (Piricularia oryzae [15]): 95%; % DISEASE CONTROL WGB (Septoria nodorum [16]): 0%; % DISEASE CONTROL TLB (Phytophthora infestans): 0%; % DISEASE CONTROL WLR [17]: 90%; % DISEASE CONTROL WPM [18]: 90%
"O=c1oc2ccccc2n1CC#CBr [Y=H, X=Br, 3-(3-bromopropargyl)-2-benzoxazolone]",> 25,> 25,> 25,> 25,> 250,> 25,> 250,> 250,> 25,> 25,> 250,–,–,–,–,–,–,–,–,–,–
